Patent US20120115896A1, “ISOGENIC HUMAN CELL LINES COMPRISING MUTATED CANCER ALLELES AND PROCESS USING THE CELL LINES” (priority 2008, published 2012)
Where two headings read alike, the source gives them in different places.

What was measured:
[1] = test system: hTERT-HME1 cells carrying KRAS (G13D) KI; assay: Drug assay: cell viability by ATP content (96 h), KI versus parental cells; ΔKI pharmarray analysis
[2] = test system: hTERT-HME1 cells carrying BRAF (V600E) KI; assay: as above; conditions: for pharmarray: differential response of BRAF mutated cells versus WT: hTERT-HME1, FIG. 5H
[3] = test system: hTERT-HME1 DKI cells carrying PIK3CA (H1047R) and EGFR (delE746-A750); assay: Drug assay: cell viability by ATP content (96 h), DKI versus parental cells; ΔKI pharmarray analysis
[4] = test system: hTERT-HME1 cells carrying EGFR (delE746-A750) KI; assay: Drug assay: cell viability by ATP content (CellTiter-Glo, 96 h), KI versus parental cells; ΔKI pharmarray analysis
[5] = test system: hTERT-HME1 cells carrying PIK3CA (E545K and H1047R) KI; assay: Drug assay: cell viability by ATP content (96 h) and Hoechst/propidium iodide staining, KI versus parental cells; ΔKI pharmarray analysis

CC/C(=C(\c1ccc(O)cc1)c1ccc(OCCN(C)C)cc1)c1ccccc1 [Tamoxifen 4-Hydroxy-(Z)]
ΔKI KRAS [1]: 0 | ΔKI BRAF [2]: 0

Erlotinib mesylate
pharmarray: differential response of KRAS mutated cells versus WT ([1]; hTERT-HME1, FIG. 5H): resistant | sensitization in DKI cells containing both EGFR and PIK3CA alterations [3]: abrogates the sensitization seen with the EGFR KI alone | pharmarray: differential response of BRAF mutated cells versus WT [2]: resistant | growth inhibition of EGFR delE746-A750 KI versus WT cells [4]: preferentially inhibited the growth | pharmarray: differential response of EGFR mutated cells versus WT [4]: inhibit EGFR mutated cells selectively | IC50 ([4]; read-out: IC50 values of erlotinib in EGFR mutant cells): 250 ± 140 nM

C=CCNC1=C2C[C@@H](C)C[C@H](OC)[C@H](O)[C@@H](C)/C=C(\C)[C@H](OC(N)=O)[C@@H](OC)/C=C\C=C(/C)C(=O)NC(=CC1=O)C2=O [17-AAG, 17-Allylamino geldanamycin]
ΔKI PIK3CA + EGFR [3]: 0 | ΔKI PIK3CA + EGFR ([3]; Log(M) −5.70): 1.18 | ΔKI PIK3CA + EGFR ([3]; Log(M) −6.70): 0 | ΔKI BRAF [2]: 0 | ΔKI BRAF ([2]; Log(M) −5.70): 0.08 | ΔKI BRAF ([2]; Log(M) −6.70): 0 | ΔKI PIK3CA [5]: 0 | ΔKI PIK3CA ([5]; Log(M) −5.70): 3 | ΔKI PIK3CA ([5]; Log(M) −6.70): 0 | ΔKI EGFR [4]: −11.7 | ΔKI EGFR ([4]; Log(M) −5.70): 0 | ΔKI EGFR ([4]; Log(M) −6.70): 0 | pharmarray: differential response of EGFR mutated cells versus WT ([4]; hTERT-HME1, FIG. 5B, 5E): less susceptible than their WT counterpart

CC[C@H](C)C(=O)O[C@H]1CCC=C2C=C[C@H](C)[C@H](CC[C@@H]3C[C@@H](O)CC(=O)O3)[C@H]21 [mevastatin, Mevastatin]
pharmarray: differential response of BRAF mutated cells versus WT [2]: more resistant

COc1ccc2c(c1)c(CC(=O)N1CCOCC1)c(C)n2C(=O)c1ccc(Cl)cc1 [IMMA (BML-190)]
ΔKI KRAS [1]: 0 | ΔKI KRAS ([1]; Log(M) −3.90): 0 | ΔKI PIK3CA + EGFR [3]: 0 | ΔKI PIK3CA + EGFR ([3]; Log(M) −3.90): 0 | ΔKI BRAF [2]: 0 | ΔKI BRAF ([2]; Log(M) −3.90): 0 | ΔKI PIK3CA [5]: 0 | ΔKI PIK3CA ([5]; Log(M) −3.90): 0.72 | ΔKI EGFR [4]: 0 | ΔKI EGFR ([4]; Log(M) −3.90): 0

CCCCC/C=C\C/C=C\C/C=C\C/C=C\CCCC(=O)Nc1ccc(O)cc1 [AM404]
ΔKI KRAS [1]: 0 | ΔKI KRAS ([1]; Log(M) −4.70): 0 | ΔKI PIK3CA + EGFR [3]: 0 | ΔKI PIK3CA + EGFR ([3]; Log(M) −4.70): 0 | ΔKI BRAF [2]: −0.12 | ΔKI BRAF ([2]; Log(M) −4.70): −1.68 | ΔKI PIK3CA [5]: 0 | ΔKI PIK3CA ([5]; Log(M) −4.70): 0 | ΔKI EGFR [4]: 0 | ΔKI EGFR ([4]; Log(M) −4.70): 0

CCCCCCCCCCCCCCCCCCOCC(COC(=O)OC1C(O)C(O)C(O)C(CO)C1O)OC [OGC-023, 1L6-Hydroxymethyl-chiro-inositol-2-(R)-2-O-methyl-3-O-octadecyl-sn-glycerocarbonate]
ΔKI KRAS ([1]; Log(M) −4.14): 0 | ΔKI KRAS ([1]; Log(M) −4.62): 0 | ΔKI KRAS ([1]; Log(M) −5.10): 0 | ΔKI PIK3CA + EGFR ([3]; Log(M) −4.14): 0 | ΔKI PIK3CA + EGFR ([3]; Log(M) −4.62): 3.32 | ΔKI PIK3CA + EGFR ([3]; Log(M) −5.10): 2.4 | ΔKI BRAF ([2]; Log(M) −4.14): 0 | ΔKI BRAF ([2]; Log(M) −4.62): 0 | ΔKI BRAF ([2]; Log(M) −5.10): 0 | ΔKI PIK3CA ([5]; Log(M) −4.14): 0 | ΔKI PIK3CA ([5]; Log(M) −4.62): 0 | ΔKI PIK3CA ([5]; Log(M) −5.10): 0 | ΔKI EGFR ([4]; Log(M) −4.14): 0 | ΔKI EGFR ([4]; Log(M) −4.62): 0 | ΔKI EGFR ([4]; Log(M) −5.10): 0

COc1ccc(-c2cc(=O)c3c(O)c(OC)c(O)cc3o2)cc1OC [Eupatiline]
ΔKI KRAS [1]: 0 | ΔKI KRAS ([1]; Log(M) −3.97): 0 | ΔKI PIK3CA + EGFR [3]: 0 | ΔKI PIK3CA + EGFR ([3]; Log(M) −3.97): 0 | ΔKI BRAF [2]: −0.1 | ΔKI BRAF ([2]; Log(M) −3.97): 2.9 | ΔKI PIK3CA [5]: −1.66 | ΔKI PIK3CA ([5]; Log(M) −3.97): 0 | ΔKI EGFR [4]: 0 | ΔKI EGFR ([4]; Log(M) −3.97): 0

O=c1c(-c2ccc(O)cc2)coc2cc(O)cc(O)c12 [genistein, Genistein]
pharmarray: differential response of EGFR mutated cells versus WT [4]: EGFR sensitive drug cluster
